Common to all, as to type: cell-based
Assay [1] concerns the target Serine/threonine-protein kinase 26 (Homo sapiens) (UniProt Q9P289). Nature of the assay: Inhibition of MST4 Lys1 labeling site in human A-375 cells at 5 uM by KiNativ Profiling analysis relative to control.
Assay [2] deals with T1, Scaffold protein ILK (Homo sapiens) (UniProt Q13418).
T1 sequence (whole entry): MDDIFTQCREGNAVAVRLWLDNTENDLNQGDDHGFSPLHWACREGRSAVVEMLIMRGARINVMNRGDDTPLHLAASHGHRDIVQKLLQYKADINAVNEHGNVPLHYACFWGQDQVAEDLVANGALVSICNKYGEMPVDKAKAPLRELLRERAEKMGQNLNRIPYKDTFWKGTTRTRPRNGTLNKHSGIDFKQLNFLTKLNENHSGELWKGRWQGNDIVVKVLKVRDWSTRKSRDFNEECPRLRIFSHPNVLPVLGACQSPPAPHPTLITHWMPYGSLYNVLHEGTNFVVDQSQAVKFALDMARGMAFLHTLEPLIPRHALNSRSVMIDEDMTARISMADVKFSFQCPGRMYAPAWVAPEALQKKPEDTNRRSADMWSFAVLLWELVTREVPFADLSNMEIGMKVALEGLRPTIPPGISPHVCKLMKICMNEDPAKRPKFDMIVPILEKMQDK
Nature of the assay: Inhibition of ILK Lys1 labeling site in human A-375 cells at 0.5 uM by KiNativ Profiling analysis relative to control.

Assay [3] addresses RAC-alpha serine/threonine-protein kinase (Homo sapiens) (UniProt P31749). In words: Inhibition of AKT1 ATP Loop labeling site in human A-375 cells at 0.05 uM by KiNativ Profiling analysis relative to control.
In assay [4] the target is Aurora kinase B (Homo sapiens) (UniProt Q96GD4). In words: Inhibition of AurB ATP Loop labeling site in human A-375 cells at 0.05 uM by KiNativ Profiling analysis relative to control.
Assay [5] has as its target T2, Aurora kinase C (Homo sapiens) (UniProt Q9UQB9).
T2 sequence (whole entry): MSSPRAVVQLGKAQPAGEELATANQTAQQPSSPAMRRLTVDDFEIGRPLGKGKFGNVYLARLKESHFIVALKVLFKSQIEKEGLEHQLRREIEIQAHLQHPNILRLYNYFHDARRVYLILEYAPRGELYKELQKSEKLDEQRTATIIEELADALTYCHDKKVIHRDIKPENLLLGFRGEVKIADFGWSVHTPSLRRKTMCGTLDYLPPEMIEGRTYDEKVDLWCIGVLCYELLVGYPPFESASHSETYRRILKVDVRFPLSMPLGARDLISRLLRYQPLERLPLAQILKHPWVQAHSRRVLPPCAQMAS
Nature of the assay: Inhibition of AurC ATP Loop labeling site in human A-375 cells at 0.05 uM by KiNativ Profiling analysis relative to control.

Assay [6] addresses T3, Serine/threonine-protein kinase 3 (Homo sapiens) (UniProt Q13188).
T3 sequence (whole entry): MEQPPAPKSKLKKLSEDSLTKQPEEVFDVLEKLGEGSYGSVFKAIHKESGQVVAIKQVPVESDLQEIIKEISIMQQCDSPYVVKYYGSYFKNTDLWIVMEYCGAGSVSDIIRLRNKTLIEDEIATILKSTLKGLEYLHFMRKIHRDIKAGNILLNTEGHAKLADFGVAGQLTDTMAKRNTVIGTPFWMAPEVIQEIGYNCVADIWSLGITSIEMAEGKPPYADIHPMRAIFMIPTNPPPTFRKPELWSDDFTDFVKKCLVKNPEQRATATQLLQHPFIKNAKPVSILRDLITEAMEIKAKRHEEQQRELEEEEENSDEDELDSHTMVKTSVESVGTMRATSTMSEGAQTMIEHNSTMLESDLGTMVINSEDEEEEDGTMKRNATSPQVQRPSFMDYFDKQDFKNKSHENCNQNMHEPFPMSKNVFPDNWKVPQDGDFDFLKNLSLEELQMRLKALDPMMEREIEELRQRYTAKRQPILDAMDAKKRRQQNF
Nature of the assay: Inhibition of MST2 Lys1 labeling site in human A-375 cells at 0.05 uM by KiNativ Profiling analysis relative to control.

In assay [7] the target is T4, Serine/threonine-protein kinase NLK (Homo sapiens) (UniProt Q9UBE8).
T4 sequence (whole entry): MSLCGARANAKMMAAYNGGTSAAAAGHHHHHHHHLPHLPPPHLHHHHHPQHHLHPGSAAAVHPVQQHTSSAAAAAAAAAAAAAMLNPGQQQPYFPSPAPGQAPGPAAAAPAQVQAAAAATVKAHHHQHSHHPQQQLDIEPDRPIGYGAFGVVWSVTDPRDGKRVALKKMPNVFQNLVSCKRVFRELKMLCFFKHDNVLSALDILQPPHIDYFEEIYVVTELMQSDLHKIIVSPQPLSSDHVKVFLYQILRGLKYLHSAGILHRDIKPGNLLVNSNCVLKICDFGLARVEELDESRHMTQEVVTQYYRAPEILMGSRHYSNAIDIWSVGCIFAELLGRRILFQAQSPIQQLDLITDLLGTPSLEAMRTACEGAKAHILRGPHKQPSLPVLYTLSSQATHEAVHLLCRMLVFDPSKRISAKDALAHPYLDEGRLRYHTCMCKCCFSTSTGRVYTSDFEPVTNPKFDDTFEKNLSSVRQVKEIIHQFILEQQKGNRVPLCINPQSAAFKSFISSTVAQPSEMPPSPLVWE
In words: Inhibition of NLK Lys2 labeling site in human A-375 cells at 0.05 uM by KiNativ Profiling analysis relative to control.

Assay [8] concerns the target T5, Serine/threonine-protein kinase TBK1 (Homo sapiens) (UniProt Q9UHD2).
T5 sequence (whole entry): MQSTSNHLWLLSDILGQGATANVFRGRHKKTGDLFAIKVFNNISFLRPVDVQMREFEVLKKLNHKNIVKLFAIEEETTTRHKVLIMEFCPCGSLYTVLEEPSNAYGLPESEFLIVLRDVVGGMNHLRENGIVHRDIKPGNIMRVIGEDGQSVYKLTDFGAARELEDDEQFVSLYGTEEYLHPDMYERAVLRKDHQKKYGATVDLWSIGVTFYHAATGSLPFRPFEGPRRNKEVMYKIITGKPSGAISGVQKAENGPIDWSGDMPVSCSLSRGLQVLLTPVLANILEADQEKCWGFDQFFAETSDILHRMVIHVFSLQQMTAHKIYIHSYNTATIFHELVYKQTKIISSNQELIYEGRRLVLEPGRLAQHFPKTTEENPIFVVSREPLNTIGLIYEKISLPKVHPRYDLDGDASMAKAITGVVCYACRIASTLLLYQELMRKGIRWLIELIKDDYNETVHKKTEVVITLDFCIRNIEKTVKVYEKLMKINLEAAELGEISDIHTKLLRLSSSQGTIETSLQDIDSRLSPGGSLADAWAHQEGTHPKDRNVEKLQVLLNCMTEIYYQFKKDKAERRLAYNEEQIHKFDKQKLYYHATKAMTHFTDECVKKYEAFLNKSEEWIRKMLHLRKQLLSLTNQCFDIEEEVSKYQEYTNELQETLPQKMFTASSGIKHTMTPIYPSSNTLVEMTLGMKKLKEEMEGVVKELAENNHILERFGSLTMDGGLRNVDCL
In words: Inhibition of TBK1 Lys1 labeling site in human A-375 cells at 0.05 uM by KiNativ Profiling analysis relative to control.

Structures are written as SMILES.

Chain of Serine/threonine-protein kinase 26 (Homo sapiens) (Q9P289 2-416 limits assumed): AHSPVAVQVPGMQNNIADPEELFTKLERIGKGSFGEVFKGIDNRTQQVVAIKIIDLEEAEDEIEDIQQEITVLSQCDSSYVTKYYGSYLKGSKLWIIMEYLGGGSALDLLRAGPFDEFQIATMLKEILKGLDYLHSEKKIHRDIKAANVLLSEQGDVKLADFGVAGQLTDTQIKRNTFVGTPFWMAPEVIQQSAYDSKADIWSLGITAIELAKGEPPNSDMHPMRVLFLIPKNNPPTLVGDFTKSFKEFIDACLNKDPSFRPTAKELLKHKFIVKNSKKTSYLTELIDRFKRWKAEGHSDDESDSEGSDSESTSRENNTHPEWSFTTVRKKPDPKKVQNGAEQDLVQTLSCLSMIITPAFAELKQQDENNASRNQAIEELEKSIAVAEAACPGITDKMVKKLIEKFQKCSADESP
Chain of Aurora kinase B (Homo sapiens) (Q96GD4 whole entry): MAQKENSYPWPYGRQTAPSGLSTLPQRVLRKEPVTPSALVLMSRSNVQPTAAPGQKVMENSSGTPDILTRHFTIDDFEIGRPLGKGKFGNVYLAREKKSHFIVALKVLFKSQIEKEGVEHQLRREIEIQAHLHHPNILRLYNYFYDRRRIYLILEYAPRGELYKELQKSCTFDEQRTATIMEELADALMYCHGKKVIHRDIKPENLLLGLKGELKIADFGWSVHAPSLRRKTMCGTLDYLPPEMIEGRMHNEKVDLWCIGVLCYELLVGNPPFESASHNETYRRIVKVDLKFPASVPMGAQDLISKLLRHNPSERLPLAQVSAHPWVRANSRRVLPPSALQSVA
Chain of RAC-alpha serine/threonine-protein kinase (Homo sapiens) (P31749 whole entry): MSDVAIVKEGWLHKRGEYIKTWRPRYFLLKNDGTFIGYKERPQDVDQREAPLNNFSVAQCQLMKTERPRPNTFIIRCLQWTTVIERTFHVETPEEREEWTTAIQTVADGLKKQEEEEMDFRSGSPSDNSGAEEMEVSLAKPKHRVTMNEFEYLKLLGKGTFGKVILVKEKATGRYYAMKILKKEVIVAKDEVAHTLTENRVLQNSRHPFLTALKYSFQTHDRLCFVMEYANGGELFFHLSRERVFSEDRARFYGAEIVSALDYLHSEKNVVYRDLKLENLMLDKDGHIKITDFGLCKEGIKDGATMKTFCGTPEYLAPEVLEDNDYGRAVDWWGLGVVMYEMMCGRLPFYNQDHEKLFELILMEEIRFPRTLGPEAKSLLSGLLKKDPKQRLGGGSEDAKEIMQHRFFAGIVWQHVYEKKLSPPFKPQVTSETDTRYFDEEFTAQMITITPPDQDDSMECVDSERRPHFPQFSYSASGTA

As for `CCN1CCN(Cc2ccc(NC(=O)c3ccc(C)c(/C=C/c4cnc5[nH]ccc5c4OC)c3)cc2C(F)(F)F)CC1`, the inhibition (commonly the relative decrease from the control value, in per cent) was -6.1% in assay [1]; -1.2% in assay [2]; 9.8% in assay [3]; 14.1% in assay [4]; 14.1% in assay [5]; 9.2% in assay [6]. In addition, the inhibition in assay [7] worked out at 13.8%; in assay [8] it was 33.4%.

With `CCN1CCN(Cc2ccc(NC(=O)c3ccc(C)c(Oc4ccnc5[nH]ccc45)c3)cc2C(F)(F)F)CC1`, the inhibition was 1.1% in assay [1]; 4.9% in assay [2]; -7.9% in assay [3]; 32.5% in assay [4]; 32.5% in assay [5]; -6.5% in assay [6]. The inhibition is -5.6% in assay [7] and 16.7% in assay [8].

The record behind these values is ChEMBL document CHEMBL5696442, “Discovery of type II inhibitors of TGFβ-activated kinase 1 (TAK1) and mitogen-activated protein kinase kinase kinase kinase 2 (MAP4K2)” (J Med Chem, 2015).
